Data on three compounds can be found in ChEMBL document CHEMBL4052775, “Design, synthesis and in vitro anti-mycobacterial evaluation of gatifloxacin-1H-1,2,3-triazole-isatin hybrids” (Bioorg Med Chem Lett, 2017).

Values after ≈ are worked out from the molar mass of the structure shown.

Data set [1] can be described thus: Cytotoxicity against African green monkey Vero cells assessed as reduction in cell viability after 72 hrs by MTT assay. The format is cell-based. The following applies: chlorocebus sabaeus. A general note: Tetrazolium assays rely on reduction of a dye to a coloured formazan, in cell work by metabolically active cells.
For data set [2], the system named is Mycobacterium tuberculosis. Kind of data set: Antimycobacterial activity against Mycobacterium tuberculosis H37Rv ATCC 27294 by two fold dilution method. In kind it is functional.
Data set [3] is described as follows: Selectivity index, ratio of CC50 for African green monkey Vero cells to MIC for Mycobacterium tuberculosis H37Rv ATCC 27294. In kind it is toxicity. The following applies: read-out: Selectivity Index.

Consider `COc1c(N2CCNC(C)C2)c(F)cc2c(=O)c(C(=O)O)cn(C3CC3)c12` (configuration not stated) [GATIFLOXACIN], for which the CC50 (commonly the concentration at which the toxic effect on the cells reaches its halfway point) at 72 h in data set [1] turned out to be 125 µg/mL (≈ 333 µM). Also, the MIC (usually the lowest concentration that inhibits growth of the organism) in data set [2] worked out at 0.78 µg/mL (≈ 2.08 µM). Moreover, the selectivity ratio in data set [3] is 160.

In the case of `NNC(=O)c1ccncc1` [ISONIAZID], the CC50 at 72 h in data set [1] is 125 µg/mL (≈ 911 µM). Moreover, the MIC in data set [2] turned out to be 0.05 µg/mL (≈ 0.365 µM).

Turning to `CO[C@H]1/C=C/O[C@@]2(C)Oc3c(C)c(O)c4c(O)c(c(/C=N/N5CCN(C)CC5)c(O)c4c3C2=O)NC(=O)/C(C)=C\C=C\[C@H](C)[C@H](O)[C@@H](C)[C@@H](O)[C@@H](C)[C@H](OC(C)=O)[C@@H]1C` [RIFAMPIN], the 50% cytotoxic concentration (CC50) at 72 h in data set [1] is 500 µg/mL (≈ 608 µM). This compound came in with an MIC in data set [2] of 0.39 µg/mL (≈ 0.474 µM).
